Measurements from US9296774B2, “Halogenated dideoxy sugar derivates, preparation method and application thereof” (Suzhou Harmony Biotechnology Co., Ltd., priority 2009, dated 2016).
Entries after “also recorded” stand apart in the source; their conditions may differ.

Key:
[1] = tested on: mouse; assay: Acute toxicity (LD50), mouse ig
[2] = tested on: mouse; assay: Acute toxicity (LD50), mouse ip injection; details: mouse ip after injection
[3] = tested on: B16 malignant melanoma; assay: Mouse transplant tumor, B16 malignant melanoma; details: for Inhibition of tumor growth (%) / Weight of tumor / weight end / weight start: B16, 125 mg/kg once a day for 7 days; for weight end: body weight at end; for weight start: body weight at start; for inhibitive effect on mouse transplant tumor (in words): B16 malignant melanoma, 125 mg/kg
Protocol: (§1) Saline solution was used as a control. The positive group CTX was treated with the compounds at an amount of 0.4 ml/20 g. The compounds were applied once a day for consecutive 7 days.

[4] = tested on: MX-1 human breast cancer cells; assay: Mouse transplant tumor, MX-1 human breast cancer; details: for inhibitive effect on mouse transplant tumor (in words): 125 mg/kg; for Inhibition of tumor growth / Weight of tumor / weight end / weight start: 125 mg/kg once a day for 7 days; for weight end: animal weight at end; for weight start: animal weight at start;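 as to all read-outs here: mice given saline served as the control group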
Protocol: as §1

[5] = tested on: MGC human stomach cancer cells; assay: Mouse transplant tumor, MGC human stomach cancer; details: for inhibitive effect on mouse transplant tumor (in words): 125 mg/kg; for Inhibition of tumor growth / Weight of tumor / weight end / weight start: 125 mg/kg once a day for 7 days; for weight end: animal weight at end; for weight start: animal weight at start;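 as to all read-outs here: control group received saline vehicle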
Protocol: Saline solution was used as a control. The positive group CTX was treated with the compounds at an amount of 0.4 ml/20 g. The compounds were applied once a day for consecutive 7 days. The animals were then compensated.

[6] = tested on: 05-732 human bone tumor; assay: Mouse transplant tumor, 05-732 human osteosarcoma; details: for inhibitive effect on mouse transplant tumor (in words): 05-732 human bone tumor, 125 mg/kg; for Inhibtion of tumor growth / Weight of tumor / weight end / weight start: 05-732 human osteosarcoma, 125 mg/kg once a day for 7 days; for weight end: animal weight at end; for weight start: animal weight at start
Protocol: as §1

[7] = tested on: AsPc human pancreatic cancer cells; assay: Mouse transplant tumor, AsPc human pancreatic cancer; details: for inhibitive effect on mouse transplant tumor (in words): 125 mg/kg; for Inhibition of tumor growth / Weight of tumor / weight end / weight start: 125 mg/kg once a day for 7 days; for weight end: animal weight at end; for weight start: animal weight at start;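 as to all read-outs here: Saline-treated mice served as the control group, with a CTX-treated group as positive reference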
Protocol: as §1

[8] = tested on: anaplastic thyroid carcinoma TA-K cells; assay: Mouse transplant tumor, human anaplastic thyroid carcinoma TA-K; details: for inhibitive effect on mouse transplant tumor (in words): anaplastic thyroid carcinoma TA-K, 125 mg/kg; for Inhibition of tumor growth / Weight of tumor / weight end / weight start: human anaplastic thyroid carcinoma TA-K, 125 mg/kg once a day for 7 days; for weight end: animal weight at end; for weight start: animal weight at start;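 as to all read-outs here: Tumor-bearing mice compared against a saline-treated control group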
Protocol: as §1

For `CC(=O)OCC1OC(OP(=O)(O)N(CCCl)CCCl)CC(Br)C1OC(C)=O` (stereo not shown) [Compound 10], the LD50 [1] was 2223.7 mg/kg, the LD50 [2] was 315.6 mg/kg and the “Inhibition of tumor growth (%)” value [3] was 73.1%. The Weight of tumor [3] was 0.7, the weight end [3] was 18.3 and the weight start [3] was 18.3. For the same compound, the “inhibitive effect on mouse transplant tumor (in words)” value (“inhibitive effect” for short) [3] was “good inhibitive effect; also recorded: significant effect”, the “inhibitive effect” value [4] was “good inhibitive effect; also recorded: significant effect” and the “Inhibition of tumor growth” value [4] was 73.2. It also gave a Weight of tumor [4] of 0.7, a weight end [4] of 18.3 and a weight start [4] of 18.3. For the same compound, the “inhibitive effect” value [5] was “good inhibitive effect; also recorded: significant effect”, the “Inhibition of tumor growth” value [5] was 73.2 and the Weight of tumor [5] was 0.6. For the same compound, the weight end [5] was 18.3, the weight start [5] was 18.3 and the “inhibitive effect” value [6] was “good inhibitive effect; also recorded: significant effect”. For the same compound, the “Inhibtion of tumor growth” value [6] was 78.4, the Weight of tumor [6] was 0.6 and the weight end [6] was 18.3. The weight start [6] was 18.3, the “inhibitive effect” value [7] was “good inhibitive effect; also recorded: significant effect” and the “Inhibition of tumor growth” value [7] was 76.9. For the same compound, the Weight of tumor [7] was 0.5, the weight end [7] was 18.3 and the weight start [7] was 18.3. For the same compound, the “inhibitive effect” value [8] was “good inhibitive effect; also recorded: significant effect”, the “Inhibition of tumor growth” value [8] was 71.2 and the Weight of tumor [8] was 0.8. It also gave a weight end [8] of 18.3 and a weight start [8] of 18.3.

In the case of `CC(=O)OCC1OC(OP(=O)(O)N(CCCl)CCCl)C(Br)CC1OC(C)=O` (stereo not shown) [Compound 12], the LD50 [1] is reported as 2101.4 mg/kg, the LD50 [2] is reported as 306.4 mg/kg and the “Inhibition of tumor growth (%)” value [3] is reported as 79.5%. The Weight of tumor [3] was 0.5, the weight end [3] was 18.4 and the weight start [3] was 18.2. The “inhibitive effect” value [3] was “significant effect”, the “inhibitive effect” value [4] was “significant effect” and the “Inhibition of tumor growth” value [4] was 82.1. For the same compound, the Weight of tumor [4] was 0.4, the weight end [4] was 18.4 and the weight start [4] was 18.2. The “inhibitive effect” value [5] was “significant effect”, the “Inhibition of tumor growth” value [5] was 80.5 and the Weight of tumor [5] was 0.5. For the same compound, the weight end [5] was 18.4, the weight start [5] was 18.2 and the “inhibitive effect” value [6] was “significant effect”. For the same compound, the “Inhibtion of tumor growth” value [6] was 75.1, the Weight of tumor [6] was 0.5 and the weight end [6] was 18.4. For the same compound, the weight start [6] was 18.2, the “inhibitive effect” value [7] was “significant effect” and the “Inhibition of tumor growth” value [7] was 77.5. It also gave a Weight of tumor [7] of 0.5, a weight end [7] of 18.4 and a weight start [7] of 18.2. The “inhibitive effect” value [8] was “significant effect”, the “Inhibition of tumor growth” value [8] was 75.8 and the Weight of tumor [8] was 0.6. For the same compound, the weight end [8] was 18.4 and the weight start [8] was 18.2.
